Experiments:
herpesvirus [1] = assay: Inhibition studies of herpesvirus replication by the compounds exemplified; assay type: cell-based; conditions: summary table, read-out: ED50 (the source's name)
Procedure: (§1) The following procedures were then used to determine inhibitory effects of the compound of example 1 on the replication of HSV-1, strain F. First, confluent monolayers of the African green monkey kidney cell line, Vero (ATCC 733-VR CCL 81) in 24 well cell culture plates were pretreated with specified concentrations (0 μM, 0.5 μM, 1 μM, 5 μM, 10 μM, 20 μM and 50 μM) of ALX-19 at 37° C., 5% CO2 for 24 hours. This was accomplished by diluting the stock solution of the test compound in growth medium (10% fetal bovine serum, 100 IU/ml penicillin, 100 μg/ml streptomycin and 0.02 mg/ml gentamicin in Dulbecco's MEM (DMEM)) used to overlay the monolayers.
(§2) After pretreatment with the test compound, the monolayers were overlaid with 0.1 ml of diluted virus stock at about 20 pfu/well. Virus was then allowed to absorb for 1 hours at 37° C. The virus inoculum was removed and the monolayers were overlaid with DMEM containing 2% FBS and the specified concentrations of the test compound. Virus was next allowed to replicate for 48 hours and then the monolayers were fixed and stained with a solution of 1% crystal violet in 70% ethanol:formalin:acetic acid (20:2:1). Finally, plaques (each representing a single infectious virus particule or plaque forming unit (PFU) were counted and checked microscopically. The results were as follows:
(§3) A procedure similar to that described in Example 3 was conducted to determine the anti-viral activity of the compound of example 2. In the case, however, the concentrations of the test compound used to pretreat the MRC-5 cells were 0 μM, 1 μM, 10 μM, 100 μM and 500 μM, respectively. The following results were obtain on infection and incubation of the treated cells:
The following table illustrates results obtained in inhibition and cytotoxicity studies of herpesvirus replication by the compounds exemplified.

herpes simplex virus = assay: Plaque reduction assay, inhibition of herpesvirus replication by the compound of example 2 (MRC-5 cells); assay type: cell-based; conditions: for Plaque number: untreated 19
Text: (§4) The present invention provides novel di-guanidino-substituted compounds having anti-herpesvirus activity. The term "anti-herpesvirus" as used herein refers to those compounds which inhibit replication of a member of the herpesvirus family as determined by conventional cell culture assay, such as the well established plaque reduction assay. In the context of the plaque reduction assay, for example, the anti-herpesvirus nature of a compound in accordance with the present invention is indicated by a reduction in plaque count, or a reduction in plaque size, following treatment of virally infected cells with the given compound, relative to a virally infected, untreated control.
as §1, §2
as §3, with “cells: […]” for “cells:”

herpesvirus [2] = assay type: cell-based
Procedure: The therapeutic index of this compound, i.e. the ratio of its cytotoxicity to its viral toxicity, was determined to be 12.29. The following table illustrates results obtained in inhibition and cytotoxicity studies of herpesvirus replication by the compounds exemplified.

HSV-1, strain F = assay: Plaque reduction assay, inhibition of HSV-1 strain F replication by the compound of example 1 (Vero cells); assay type: cell-based, herpes simplex virus type 1; conditions: for Plaque number: Vero, 24 h pretreatment, 48 h, untreated 19
Text: as §4
The compound of example 1 was formulated as a 10 mM stock in water for in vitro and cell culture procedures. The stock was then diluted into buffers used for specific assays, or into cell culture media.
as §1
as §2, with “follows: […]” for “follows:”

N=C(N)NCCCOC[C@H]1OC(OCCCNC(=N)N)CC[C@@H]1OCCCNC(=N)N (stereo partly drawn) [Example 2, 1,4,6-tri-O-propylguanidine-2,3-dideoxy-hexoside]
EC50 (herpesvirus [1]): 10.5 µM | Plaque number (herpes simplex virus; 0.5 μM, MRC-5 cells): 18 | Plaque number (herpes simplex virus; 1 μM, MRC-5 cells): 16 | Plaque number (herpes simplex virus; 5 μM, MRC-5 cells): 11 | Plaque number (herpes simplex virus; 10 μM, MRC-5 cells): 9 | Plaque number (herpes simplex virus; 20 μM, MRC-5 cells): 6 | Plaque number (herpes simplex virus; 50 μM, MRC-5 cells): 5 | EC50 (herpes simplex virus; MRC5, MRC-5 cells, plaque reduction, read-out: ED50 (the source's name)): 10.5 µM | reduction in the replication of herpes simplex virus (herpes simplex virus; concentration of 1 μM or more): significant reduction | TI (herpesvirus [2]): > 50 | therapeutic index, ratio of cytotoxicity to viral toxicity (herpesvirus [2]): > 50

CCOC1CC[C@H](OCCCCCNC(=N)N)[C@@H](COCCCCCNC(=N)N)O1 (stereo partly drawn) [Example 6, ethyl-4,6-di-O-pentylguanidine-2,3-dideoxy-hexoside]
EC50 (herpesvirus [1]): 9.3 µM | TI (herpesvirus [2]): 17.28

N=C(N)NCCCOC[C@H]1OCCC[C@@H]1OCCCNC(=N)N [Example 9, 4,6-di-O-propylguanidine-3-deoxy dihydro-D-glucal]
EC50 (herpesvirus [1]): ~50 µM | TI (herpesvirus [2]): ~ 350

CC(C)OC1CC[C@H](OCCCCCNC(=N)N)[C@@H](COCCCCCNC(=N)N)O1 (stereo partly drawn) [Example 7, isopropyl-4,6-di-O-pentylguanidine-2,3-dideoxy-D-erythro-hexoside]
EC50 (herpesvirus [1]): 6.45 µM | TI (herpesvirus [2]): 5.17

CCOCCOCCOC1CC[C@H](OCCCNC(=N)N)[C@@H](COCCCNC(=N)N)O1 (stereo partly drawn) [Example 8, (ethoxy-ethoxy-ethyl)-4,6-di-O-propylguanidine-2,3-dideoxy-d-erythrohexoside]
EC50 (herpesvirus [1]): 10 µM | TI (herpesvirus [2]): > 20

N=C(N)NCCCOC[C@H]1OC(OCCO)CC[C@@H]1OCCCNC(=N)N (stereo partly drawn) [Example 10, hydroxyethyl-4,6-di-O-propylguanidine-2,3-dideoxy-hexoside]
EC50 (herpesvirus [1]): 10.8 µM | TI (herpesvirus [2]): 31.22

CCOC1CC[C@H](OCCCNC(=N)N)[C@@H](COCCCNC(=N)N)O1 (stereo partly drawn) [Example 5, ethyl-4,6-di-O-propylguanidine-2,3-dideoxy-hexoside]
EC50 (herpesvirus [1]): 2.5 µM | TI (herpesvirus [2]): 9.96

COC1CC[C@H](OCCCNC(=N)N)[C@@H](COCCCNC(=N)N)O1 (stereo partly drawn) [Example 1, Methyl-4,6-di-O-propylguanidine-2,3-dideoxy-α,β-D-erythro-hexoside]
EC50 (herpesvirus [1]): 2.6 µM | TI (herpesvirus [2]): 12.29 | therapeutic index, ratio of cytotoxicity to viral toxicity (herpesvirus [2]): 12.29 | Plaque number (HSV-1, strain F; 0.5 μM, HSV-1 strain F): 18 | Plaque number (HSV-1, strain F; 1 μM, HSV-1 strain F): 16 | Plaque number (HSV-1, strain F; 5 μM, HSV-1 strain F): 6 | Plaque number (HSV-1, strain F; 10 μM, HSV-1 strain F): 4 | Plaque number (HSV-1, strain F; 20 μM, HSV-1 strain F): 1 | IC50 (HSV-1, strain F; Human alphaherpesvirus 1, HSV-1 strain F, Vero cells, plaque reduction): 2.6 µM | reduction in the replication of herpes simplex virus (HSV-1, strain F; concentration of more than 1 μM): significant reduction

From US5627194A, “Anti-viral guanidino-substituted compounds” (Allelix Biopharmaceuticals Inc., priority 1994, dated 1997)
